PMC10239048, “Synthesis and antioxidant, antimicrobial, and antiviral activity of some pyrazole-based heterocycles using a 2(3H)-furanone derivative” (Journal of the Iranian Chemical Society, 2023)
In brackets after ≈: the same amount, converted by molar mass.

Legend:
[1] = test system: avian influenza HPAI-H5N1 (AIV); set-up: species or system avian influenza virus HPAI-H5N1; details: in vivo
Haemophilus (Gram –ve) [2] = experiment: Agar/disk diffusion inhibition zone, Haemophilus; assay type: cell-based; details: diffusion method
Staphylococcus aureus [3] = experiment: MIC measurement by serial dilution, Staphylococcus aureus; assay type: cell-based; details: 37 °C, 24–72 h, read-out: MIC Staph (Gram + ve)
[4] = Total antioxidant capacity (TAC), phosphomolybdenum method; details: for Total antioxidant capacity: 500 µg/ml in methanol, 95 °C 90 min, 695 nm, means ± S.D., n = 3
[5] = test system: embryonated chicken SPF eggs; details: in vivo
Haemophilus (Gram –ve) [6] = experiment: MIC measurement by serial dilution, Haemophilus; assay type: cell-based; details: read-out: MIC Haemophilus (Gram –ve)
[7] = test system: avian influenza HPAI-H5N1 (AIV); set-up: species or system avian influenza virus HPAI-H5N1; details: in vivo; remark: listed apart in the source
SPF chicks = experiment: Immune-boosting properties in vaccinated SPF chicks (humeral response); assay type: in vivo, chicken; details: for Humeral response of vaccinated groups which received each tested compound separately: SPF chicks, vaccine-only group 7 log2; for Immune-boosting properties (in words): antibody titer in serum of vaccinated chicks
Staphylococcus aureus [8] = experiment: Agar/disk diffusion inhibition zone, Staphylococcus aureus; assay type: cell-based; details: diffusion method
Candida albicans = experiment: Agar diffusion antifungal activity, Candida albicans; assay type: cell-based; details: diffusion method

| SMILES | Antiviral activity against avian influenza virus (in words) [1] | Virus titer with compound [1] | Inhibition diameter Haemophilus (Gram –ve) (Haemophilus (Gram –ve) [2]) | MIC (Staphylococcus aureus [3]) | Total antioxidant capacity [4] | CC50 [5] | MIC (Haemophilus (Gram –ve) [6]) | TI [7] | Humeral response of vaccinated groups which received each tested compound separately (SPF chicks) | Inhibition diameter Staph (Gram + ve) (Staphylococcus aureus [8]) | Candida albicans (diameter of inhibition zone) (Candida albicans) | Immune-boosting properties (in words) (SPF chicks) | Antioxidant activity (in words) [4] |
| --- | --- | --- | --- | --- | --- | --- | --- | --- | --- | --- | --- | --- | --- |
| Cc1ccc(C2=CC(=Cc3c(C)nn(-c4ccccc4)c3Cl)C(=O)N2N=Cc2ccc(Cl)cc2)cc1 [Compound 15, 3-((5-Chloro-3-methyl-1-phenyl-1H-pyrazol-4-yl)methylene)-1-((4-chlorobenzylidene)-amino)-5-(p-tolyl)-1,3-dihydro-2H-pyrrol-2-one] | little antiviral activity | 10^5 | 7 mm | 18 µg/mL | 262.27 ± 2.51 mg AAE/g dry compound | 500 > µl/ egg | 16 µg/mL (≈ 31.2 µM) | 55.5 | 6.6 log2 | 6 mm | 6 mm | – | – |
| Cc1ccc(C(=O)CC(=Cc2c(C)nn(-c3ccccc3)c2Cl)C2=NCCN2)cc1 [Compound 11, 4-(5-Chloro-3-methyl-1-phenyl-1H-pyrazol-4-yl)-3-(4,5-dihydro-1H-imidazol-2-yl)-1-(p-tolyl)but-3-en-1-one] | remarked antiviral activity | 10^1 | 22 mm | 5 µg/mL | 280.0 ± 2.0 mg AAE/g dry compound | 500 > µl/ egg | 2 µg/mL (≈ 4.77 µM) | 83.3 | 7.1 log2 | 25 mm | 24 mm | special immune-boosting properties | – |
| Cc1ccc(C2=CC(=Cc3c(C)nn(-c4ccccc4)c3Cl)C(=O)N2)cc1 [Compound 4, 3-((5-Chloro-3-methyl-1-phenyl-1H-pyrazol-4-yl)methylene)-5-(p-tolyl)-1,3-dihydro-2H-pyrrol-2-one] | remarked antiviral activity | 10^1 | 22 mm | 5 µg/mL | 278.56 ± 4.61 mg AAE/g dry compound | 500 > µl/ egg | 6 µg/mL (≈ 16 µM) | 83.3 | 7.5 log2 | 25 mm | 25 mm | special immune-boosting properties | – |
| Cc1ccc(C(=O)CC(=Cc2c(C)nn(-c3ccccc3)c2Cl)C(=O)NN)cc1 [Compound 8, 2-((5-Chloro-3-methyl-1-phenyl-1H-pyrazol-4-yl)methylene)-4-oxo-4-(p-tolyl)butanehydrazide] | little antiviral activity | – | 4 mm | 13 µg/mL | 145.0 ± 1.73 mg AAE/g dry compound | 500 > µl/ egg | 12 µg/mL (≈ 29.3 µM) | 55.5 | 6.6 log2 | 8 mm | 8 mm | – | Moderate antioxidant activity |
| Cc1ccc(C2=CC(=Cc3c(C)nn(-c4ccccc4)c3Cl)C(=O)O2)cc1 [Compound 3, 3-((5-Chloro-3-methyl-1-phenyl-1H-pyrazol-4-yl)methylene)-5-(p-tolyl)furan-2(3H)-one] | remarked antiviral activity | 10^1 | 22 mm | 2 µg/mL | 156.33 ± 4.04 mg AAE/g dry compound | 300 > µl/ egg | 1 µg/mL (≈ 2.65 µM) | 96.77 | 7.3 log2 | 23 mm | 24 mm | special immune-boosting properties | Moderate antioxidant activity |
